Measurements from patent US4863748A, “Dietary products and uses comprising methylsulfonylmethane” (priority 1986, dated 1989).

What was measured:
anticholinesterases = assay: Antagonism of lethal effects of anticholinesterases; settings: as stated in Example 19
[1] = Excretion of methylsulfonylmethane; format: in vivo
Description: Orally ingested methylsulfonylmethane is stored to some degree in various organs, presumably banked for future sulfur needs of the body. The skin excretion route is unusual, particularly since about one-third of a given oral dose can be found in the perspiration. Like NaCl, excretion depends somewhat on perspiration rate. The accumulation in and excretion of methylsulfonylmethane from the skin is believed to account for its cosmetic effect, viz., more youthful appearing, pliable, blemish-reduced skin. Chemical and radiolabeled sulfur (35-S) assays can be used to determine the extent to which important biomolecules as heparin, insulin, co-enzyme A and other --SH bearing enzymes, biotin, methionine enkaphalin, human growth factor, hemoglobin, calcitonin, fibrinogen, muscle protein and other compounds derive their thiol (--S--) and disulfide (--S--S--) groups from methylsulfonylmethane and the possible preference of methylsulfonylmethane over S-content amino acids as the donor with such synthesis.

[2] = system: nutritional secondary hyperparathyroidism with obvious epiphysitis; assay: Nutritional secondary hyperparathyroidism with epiphysitis in horses (Example 3); format: in vivo, horse; settings: 12 grams twice daily in feed; conventional treatment 60-90 days minimum
Description: Calcium/phosphorous balance is critical in the horse, where these elements comprise roughly 70% of the mineral content of the horse's body. Calcium deficiency, or the reverse, viz., phosphorous excess, is undesirable. Phosphorous excess in feed will decrease intestinal absorption, resulting in lowered blood plasma calcium. One result is a stimulation in the dietary deficiency condition called nutritional secondary hyperparathyroidism. Calcium denied for bone development results in an enlargement of structurally defective fibrous tissue. In horse leg bones, it is called epiphysitis when stress inflammation is presented.
Two colts and four fillies were studied, all diagnosed as having nutritional secondary hyperparathyroidism with obvious epiphysitis. Each was provided with 12 grams of methylsulfonylmethane twice daily in a bran/molasses blend intermixed with their standard dry feed prior to feeding. The supplemented feed was well accepted. All signs and symptoms of this nutritional deficiency disease was corrected in from seven to ten days. Conventional treatment for correcting dietary calcium deficiency requires a minimum of 60-90 days before relief from inflammation is obtained. Except for the added methylsulfonylmethane, there was no change in the diet of these […] horses. The added dietary factor corrected this easily recognizable dietary deficiency in all of the horses.

[3] = system: pruritis, acne, acne rosacea; assay: Connective tissue and dermatological disorders (Example 13); format: in vivo, human
Description: Teenagers found methylsulfonylmethane in cola drinks a particularly acceptable satisfactory combination when treating acne. With rosacea, visual improvement was much slower.

rabbit eye = assay: Rabbit eye irritated with sodium lauryl sulfate (Example 14); format: in vivo; settings: 10% aqueous solution every hour
[4] = system: pain and inflammation of musculoskeletal system disorders; assay: Pain associated with systemic inflammatory disorders (Example 15); format: in vivo, human
Description: subject two, presented chronic arthritis with painful involvement of the lower trunk. Over the years they had evaluated most new antiarthritic, analgesic drugs with disappointing results.

[5] = system: scarification of the right cheek pouch; assay: Wound healing of the cheek pouch in hamsters (Example 17); format: in vivo; settings: 0.1 gm/kg methylsulfonylmethane alone or 100 mg ascorbic acid alone in feed; controls day 4 and 5
Protocol: Four sets of 5 hamsters were subject to scarification of the right cheek pouch, using standard methodology. One week prior to pouch injury, one set was started on a daily regimen of 0.1 gm/kg of methylsulfonylmethane in the diet of standard hamster feed, a second group was given 0.1 gm/kg of methylsulfonylmethane plus 100 mg of ascorbic acid in the same feed, a third group was given only 100 mg of ascorbic acid in the same feed, and the last group, fed only the feed, was held as control. Daily post-scarification examination was made to determine the rate of injury repair.

Aspergillus niger = assay: Antifungal activity; format: cell-based; settings: 500 ppm
Description: (§1) While not as potent or toxic to microbial populations as specific drug agents, by reason of its extremely low host systemic toxicity, methylsulfonylmethane contrasts sharply with present antiinfective therapeutants and methodology. It is doubtful if chemical resistance will develop with infective agents controlled by high, but safe, systemic levels of methylsulfonylmethane.

Phytophthora cinnamomi = assay: Antifungal activity; format: cell-based; settings: 500 ppm
Description: as §1

Sclerotium rolfsii = assay: Antifungal activity; format: cell-based; settings: 500 ppm
Description: as §1

[6] = system: spontaneous mouse lymphomas; assay: Spontaneous mouse lymphomas, survival (Example 37); format: in vivo, laboratory mice; settings: 3% by wt. in water; all 12 controls dead by month 4
Protocol: Laboratory mice genetically predisposed to lymphoma development were selected for this test. Humoral immunity participation was measured as was the effect of methylsulfonylmethane on an animal's life span. One set of 12 mice were maintained as controls. The treated (T) group received identical treatment except for their water given ad lib, which contained 3% by wt. of methylsulfonylmethane in solution.
By month 4 of this test, all controls were dead, due to lymphoma development. […] These normal balb/c strain mice of group T were tested for t-lymphocyte dependent (t-d) and t-lymphocyte independent (t-i) immune responses. […] Based on these preliminary results, at high enough daily rates of ingestion, methylsulfonylmethane stimulates humoral immunity thereby providing protection to otherwise lethal spontaneous mouse lymphomas.

Structure (SMILES): CS(C)(=O)=O [methylsulfonylmethane]
- antagonism of anticholinesterases in vivo (anticholinesterases): antagonizes
- rate of excretion ([1]; i.v. administration): very rapidly excreted
- excretion of excess amounts (feces, renal pathway, skin) ([1]; in vivo): excreted unchanged
- portion of a given oral dose found in the perspiration ([1]; oral): about one-third
- time to correction of all signs and symptoms [2]: seven to ten
- response of pruritis and acne ([3]; about 100-1000 mg per day): respond promptly
- response of dermatological problems ([3]; diet supplemented): respond favorably
- visual improvement with rosacea ([3]; in vivo): much slower
- time before telangiectasis diminished ([3]; subject three, 500 mg daily): at least several weeks
- clearing of irritated eye (rabbit eye): quickly cleared
- relief of pain and inflammation, musculoskeletal system disorders ([4]; about 100 up to about 5,000 mg per day): substantial and long lasting relief
- relief in migraine sufferers ([4]; oral 50-500 mg per day): substantial relief
- pain after about 16 months ([4]; subject two, 1/4-1/2 tsp. daily): substantially pain-free
- pain relief by the end of the second week ([4]; subject two, chronic arthritis, 1/2 tsp. daily): almost total pain relief
- day on which the 36-hour combination healing result was matched [5]: three
- antiparasitic (antifungal) activity (Aspergillus niger): good antiparasitic activity
- antiparasitic (antifungal) activity (Phytophthora cinnamomi): good antiparasitic activity
- antiparasitic (antifungal) activity (Sclerotium rolfsii): good antiparasitic activity
- deaths by month 5 [6]: No T group mice had died
